The values below come from patent publication US11884675B2, “Heterocyclic compounds as triggering receptor expressed on myeloid cells 2 agonists and methods of use” (AMGEN INC., priority 2020, dated 2024).

The test has as its target hTREM2 (Homo sapiens, UniProt Q9NZC2). Put plainly: TREM2 activity by cellular Syk phosphorylation (AlphaScreen/AlphaLISA) in TREM2/DAP12-HEK cells, used for Examples 1-305. The class given is cell-based. The arrangement: expressed in transfected cells. The note with it: HEK293 Cells. An excerpt:
In vitro Measurement of Triggering Receptor Expressed on Myeloid Cells 2 activity using cellular phosphorylation of Spleen Tyrosine Kinase (“Syk”) Assays used for Examples 1-305
Pharmacological measurements of TREM2 signaling through DAP12 were made with TREM2 and DAP12 overexpressing HEK293 cells stable cell lines that had been single-cell cloned (“TREM2/DAP12-HEK”). The readout of the TREM2 signaling utilized Perkin Elmer AlphaScreen/AlphaLISA technology monitoring the phosphorylation levels of the Syk kinase. TREM2/DAP12-HEK cell lines were cultured in DMEM-F12 (Corning 10-092-CM) supplemented with 1X Penicillin/Streptomycin (Corning 30-002-CI), 1X GlutaMAX (Gibco 35050-061), and 10% Fetal Bovine Serum (Life Technologies 10099) referred to as “HEK Culture Medium”. Suspensions of TREM2/DAP12-HEK cells were prepared in HEK Culture Medium and dispensed into 384-well poly-D-lysine coated microplates (Corning 354661) at a density of 20,000 cells/well using a Multidrop Combi peristaltic microplate dispenser (Thermo), 25 μL volume of cell suspension/well. Plates containing cells were then incubated for 20 hours in a humidified cell culture incubator at 37° C. with 5% CO2 (Thermo). After incubation, culture medium was removed from all wells of each microplate and replaced with 20 μL of “Assay Buffer” comprised of DMEM-F12 (Corning 10-092-CM) supplemented with 1X Penicillin/Streptomycin (Corning 30-002-CI) and 0.1% Pluronic F-68 Polyol (MP Biomedical 092750049) using a Bravo 384-well pipette-based liquid handling system (Agilent). Assay Buffer contained diluted test articles (in 1% final DMSO concentration for compounds) or 100 nM anti-human/mouse TREM2 antibody (R&D Systems MAB17291) as a positive control, or 100 nM or rat IgG2B isotype Ab as a negative control (R&D Systems MAB0061). The plates were incubated with test articles and controls for 45 minutes at room temperature and then the medium was aspirated/removed from each well of the plates. A Multidrop Combi peristaltic liquid handler (Thermo) was used to dispense 15 μL/well of “Cell Lysis Immunoassay Buffer”. The Cell Lysis Immunoassay Buffer contained M-PER Mammalian Protein Extraction Reagent (Pierce/ThermoFisher 78505), 1X Halt Phosphatase Inhibitor Cocktail (ThermoFisher #78427), 0.1875 nM anti-phospho-Syk (Tyr525/526) (C87C1) rabbit mAb (Cell Signaling Technologies catalog #2710), and 1.5 nM biotinylated Mouse anti-human Syk (4D10) antibody (BD Biosciences, catalog #624008). Plates were incubated for 1 hour at room temperature after the addition of the Cell Lysis Immunoassay Buffer. The Multidrop Combi liquid handler was used to dispense 15 μL of AlphaScreen Acceptor Bead Solution containing 7.5 μg/mL anti-rabbit IgG (Fc specific) AlphaLISA Acceptor Beads (Perkin Elmer AL104R) in 1X Immunoassay buffer (Perkin Elmer AL000F) to each well of the microplates. The plates were incubated for 2 hours at room temperature. Following the incubation with the AlphaLISA Acceptor Bead Solution, a Multidrop Combi liquid handler (Thermo) was used to dispense 15 μL of AlphaScreen Donor Bead Solution containing 30 μg/mL of AlphaScreen Streptavidin Donor beads (Perkin Elmer 6760002B) in 1X Immunoassay buffer (Perkin Elmer AL000F) to each well of the microplates. Microplates were incubated for 2 hours protected from light sources as the AlphaScreen reagents are light sensitive. Once the final incubation was completed, an AlphaScreen signal was acquired from the donor and acceptor beads using an Envision high throughput multi-modal microplate reader (Perkin Elmer) calibrated to the plate type with the AlphaScreen mirror and filter-set in 384-well mode, 680 nanometer excitation wavelength. The total measurement time per well was 550 milliseconds with a 180 millisecond excitation time. […]

hTREM2, sequence (Q9NZC2 19-230): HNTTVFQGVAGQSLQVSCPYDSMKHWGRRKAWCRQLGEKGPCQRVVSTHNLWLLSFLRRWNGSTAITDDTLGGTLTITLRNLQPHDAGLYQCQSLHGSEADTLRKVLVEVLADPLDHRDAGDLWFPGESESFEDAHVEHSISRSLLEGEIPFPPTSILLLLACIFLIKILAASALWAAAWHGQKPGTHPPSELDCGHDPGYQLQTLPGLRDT
hTREM2, sequence (O43914 22-113 partner): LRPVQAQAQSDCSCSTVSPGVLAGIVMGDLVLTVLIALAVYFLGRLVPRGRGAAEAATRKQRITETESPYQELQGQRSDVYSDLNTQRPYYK

One may read the EC50 as the concentration that produces a half-maximal response. Low values mean an effect from little substance, high ones a need for much substance. Regarding `Cc1ccc2c(n1)nc(N1CCO[C@@H](c3cnn(C)c3)C1)nc2[C@H]1C[C@@H](C(F)(F)F)C1` [Example 275, (S)-2-(1-methyl-1H-pyrazol-4-yl)-4-(7-methyl-4-((1s,3R)-3-(trifluoromethyl)cyclobutyl)pyrido[2,3-d]pyrimidin-2-yl)morpholine], the EC50 was in the range of 3000 to 100000 nM; the “hTREM2 Emax” value was “+ (Emax>45 and ≤100)”. Take `Cc1nc2nc([C@H]3CCO[C@@H](c4cnn(C5CC5)c4)C3)nc(-c3ccc(Cl)cc3F)c2nc1C` (single isomer, unassigned) [Example 181]: the “hTREM2 Emax” value is “+++ (Emax>150 and ≤250)”. Take `Cc1cc([C@@H]2CN(c3nc(-c4ccc(Cl)cc4F)c4ccc(C)nc4n3)CCO2)cnn1` [Example 259, (R)-4-(4-(4-chloro-2-fluorophenyl)-7-methylpyrido[2,3-d]pyrimidin-2-yl)-2-(6-methylpyridazin-4-yl)morpholine]: the concentration for a half-maximal effect (EC50) was at most 50 nM and the “hTREM2 Emax” value is “++++ (Emax>250)”. For `Cc1nc2nc(C3CCO[C@H](c4cnn(C)c4)C3)nc(-c3ccc(Cl)cc3F)c2nc1C` (stereo in doubt) [Example 276, 4-(4-chloro-2-fluorophenyl)-6,7-dimethyl-2-((2S,4R)-2-(1-methyl-1H-pyrazol-4-yl)tetrahydro-2H-pyran-4-yl)pteridine], in that order: 50 to 500 nM and “++++ (Emax>250)”. With `Cc1ccc(-c2nc(N3CCO[C@@H](c4ccnc(C)c4)C3)nc3nc(C)c(C)nc23)c(F)c1` [Example 39, 4-(2-fluoro-4-methylphenyl)-6,7-dimethyl-2-((2S)-2-(2-methyl-4-pyridinyl)-4-morpholinyl)pteridine], the EC50 was at most 50 nM; the “hTREM2 Emax” value was “+++ (Emax>150 and ≤250)”. For `Cc1nc2cc([C@H]3CCO[C@@H](c4cnn(C5CC5)c4)C3)nc(-c3ccc(Cl)cc3F)c2nc1C` [Example 296, 5-(4-chloro-2-fluorophenyl)-7-((2R,4S)-2-(1-cyclopropyl-1H-pyrazol-4-yl)tetrahydro-2H-pyran-4-yl)-2,3-dimethylpyrido[3,4-b]pyrazine], the EC50 was 3000 to 100000 nM.

On to `Cc1ccc2c(-c3ccc(Cl)cc3F)nc(N3CCO[C@@H](c4cnn(C)c4)C3)nc2n1` [Example 84, 4-(4-chloro-2-fluorophenyl)-7-methyl-2-((2S)-2-(1-methyl-1H-pyrazol-4-yl)-4-morpholinyl)pyrido[2,3-d]pyrimidine], for which the concentration for a half-maximal effect (EC50) was at most 50 nM; the “hTREM2 Emax” value is “+++ (Emax>150 and ≤250)”. Take `Cc1cc([C@H]2CN(c3nc4nc(C)c(C)nc4c([C@H]4C[C@H](C(F)(F)F)C4)n3)CCO2)cnn1` [Example 51, 6,7-dimethyl-2-((2S)-2-(6-methyl-4-pyridazinyl)-4-morpholinyl)-4-(trans-3-(trifluoromethyl)cyclobutyl)pteridine]: the half-maximal effective concentration (EC50) is at most 50 nM; the “hTREM2 Emax” value was “+++ (Emax>150 and ≤250)”. Take `Cc1ccc(-c2nc([C@@H]3CCO[C@@H](c4cnn(C)c4)C3)nc3nc(C)c(C)cc23)c(F)c1` [Example 268, 4-(2-fluoro-4-methylphenyl)-6,7-dimethyl-2-((2R,4R)-2-(1-methyl-1H-pyrazol-4-yl)tetrahydro-2H-pyran-4-yl)pyrido[2,3-d]pyrimidine]: the EC50 lay within 500 to 3000 nM and the “hTREM2 Emax” value was “++++ (Emax>250)”. In the case of `Cc1ccc2c(-c3ccc(Cl)cc3F)nc(N3CCO[C@@H](c4cnn(C)c4)C3)cc2n1` [Example 148, 5-(4-chloro-2-fluorophenyl)-2-methyl-7-((2S)-2-(1-methyl-1H-pyrazol-4-yl)-4-morpholinyl)-1,6-naphthyridine], the concentration for a half-maximal effect (EC50) fell in the range of 50 to 500 nM; the “hTREM2 Emax” value is “+++ (Emax>150 and ≤250)”. Take `Cc1nc2nc(N3CCO[C@@H](c4cnn(C5CC5)c4)C3)nc([C@H]3C[C@@H](C(F)F)C3)c2nc1C` [Example 47, 2-((2S)-2-(1-cyclopropyl-1H-pyrazol-4-yl)-4-morpholinyl)-4-(cis-3-(difluoromethyl)cyclobutyl)-6,7-dimethylpteridine]: the EC50 is at most 50 nM; the “hTREM2 Emax” value was “+ (Emax>45 and ≤100)”. In the case of `Cc1nc2nc(N3CCO[C@@H](c4cnn(C)c4)C3)nc(-c3ccc(Cl)cc3F)c2cc1Cl` [Example 116, 6-chloro-4-(4-chloro-2-fluorophenyl)-7-methyl-2-((2S)-2-(1-methyl-1H-pyrazol-4-yl)-4-morpholinyl)pyrido[2,3-d]pyrimidine], the EC50 was at most 50 nM; the “hTREM2 Emax” value is “+++ (Emax>150 and ≤250)”. Consider `Cc1ccc(-c2nc([C@@H]3CCO[C@@H](c4ccnc(C)c4)C3)nc3nc(C)c(C)nc23)c(F)c1` [Example 285, 4-(2-fluoro-4-methylphenyl)-6,7-dimethyl-2-((2R,4R)-2-(2-methylpyridin-4-yl)tetrahydro-2H-pyran-4-yl)pteridine], for which the concentration for a half-maximal effect (EC50) fell in the range of 50 to 500 nM and the “hTREM2 Emax” value is “++++ (Emax>250)”. For `Cc1nc2nc(N3CCC(F)(F)[C@H](c4cnn(C)c4)C3)nc(-c3ccc(Cl)cc3F)c2nc1C` (single isomer, unassigned) [Example 124] the same measures were at most 50 nM and “++++ (Emax>250)”. For `Cc1cc2c(-c3ccc(Cl)cc3F)nc(N3CCO[C@@H](c4cnn(C)c4)C3)cc2nc1C` [Example 152, 5-(4-chloro-2-fluorophenyl)-2,3-dimethyl-7-((2S)-2-(1-methyl-1H-pyrazol-4-yl)-4-morpholinyl)-1,6-naphthyridine] the same measures were at most 50 nM and “++++ (Emax>250)”. For the compound `Cc1cnc2c(-c3ccc(Cl)cc3F)nc([C@@H]3CCO[C@H](c4cnn(C5CC5)c4)C3)nc2n1` [Example 270, 4-(4-chloro-2-fluorophenyl)-2-((2S,4R)-2-(1-cyclopropyl-1H-pyrazol-4-yl)tetrahydro-2H-pyran-4-yl)-7-methylpteridine], the concentration for a half-maximal effect (EC50) lay within 500 to 3000 nM; the “hTREM2 Emax” value is “+++ (Emax>150 and ≤250)”.

As for `Cc1nc2nc(N3CCO[C@@H](c4cnn(C)c4)C3)nc(-c3ccc(C(F)(F)F)cc3F)c2nc1C` [Example 17, 4-(2-fluoro-4-(trifluoromethyl)phenyl)-6,7-dimethyl-2-((2S)-2-(1-methyl-1H-pyrazol-4-yl)-4-morpholinyl)pteridine], the EC50 was at most 50 nM and the “hTREM2 Emax” value is reported as “++++ (Emax>250)”. `Cc1nc2nc([C@@H]3CCO[C@H](c4cnn(C)c4)C3)nc(C3CCC(F)(F)CC3)c2nc1C` (single isomer, unassigned) [Example 175]: the 50% effective concentration (EC50) was 500 to 3000 nM; the “hTREM2 Emax” value was “++ (Emax>100 and ≤150)”. Take `Cc1cnc2c(-c3ccc(Cl)cc3F)nc([C@H]3CCO[C@H](c4cnn(C)c4)C3)cc2n1` [Example 246, 5-(4-chloro-2-fluorophenyl)-2-methyl-7-((2S,4S)-2-(1-methyl-1H-pyrazol-4-yl)tetrahydro-2H-pyran-4-yl)pyrido[3,4-b] pyrazine]: the half-maximal effective concentration (EC50) is 3000 to 100000 nM; the “hTREM2 Emax” value is “+++ (Emax>150 and ≤250)”. As to `Cc1ccc2c(-c3ccc(F)cc3F)nc([C@@H]3CCO[C@H](c4cnn(C)c4)C3)nc2n1` [Example 290, 4-(2,4-difluorophenyl)-7-methyl-2-((2S,4R)-2-(1-methyl-1H-pyrazol-4-yl)tetrahydro-2H-pyran-4-yl)pyrido[2,3-d] pyrimidine], the half-maximal effective concentration (EC50) lay in the range of 50 to 500 nM; the “hTREM2 Emax” value was “+++ (Emax>150 and ≤250)”. On to `Cn1cc([C@H]2CN(c3cc4ncccc4c(-c4ccc(Cl)cc4F)n3)CCO2)cn1` [Example 234, (S)-4-(5-(4-chloro-2-fluorophenyl)-1,6-naphthyridin-7-yl)-2-(1-methyl-1H-pyrazol-4-yl)morpholine], for which the EC50 was in the range of 500 to 3000 nM; the “hTREM2 Emax” value was “+++ (Emax>150 and ≤250)”.
